Experimental data from PubChem BioAssay (NCI).
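Test compounds were applied to cells in 96-well plates for 48 hours at 5 doses. GI50 = concentration required for 50% inhibition of growth. TGI is the concentration that stops growth completely.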

Experiments:
Assay in all cases: DTP human tumour cell line panel, 48 h
MCF7 breast = system: MCF7 breast
RPMI-8226 leukemia = system: RPMI-8226 leukemia
A549 NSCLC = system: A549 NSCLC
BT-549 breast = system: BT-549 breast
OVCAR-8 ovarian = system: OVCAR-8 ovarian
SNB-19 CNS = system: SNB-19 CNS
NCI-H460 lung = system: NCI-H460 lung
U251 CNS = system: U251 CNS
SK-OV-3 ovarian = system: SK-OV-3 ovarian
LOX IMVI melanoma = system: LOX IMVI melanoma

Row | Compound | TGI (MCF7 breast) | TGI (RPMI-8226 leukemia) | TGI (A549 NSCLC) | TGI (BT-549 breast) | TGI (OVCAR-8 ovarian) | TGI (SNB-19 CNS) | TGI (NCI-H460 lung) | TGI (U251 CNS) | TGI (SK-OV-3 ovarian) | TGI (LOX IMVI melanoma) | GI50 (MCF7 breast) | GI50 (BT-549 breast)
1 | Cc1cc(S(=O)(=O)Nc2nnc3c(C(F)(F)F)cc(Cl)cn23)c(S)cc1Cl | > 100 µM | > 100 µM | > 100 µM | > 100 µM | > 100 µM | > 100 µM | > 100 µM | > 100 µM | > 100 µM | > 100 µM | – | –
2 | COC(=O)c1ccc(-c2nc(C#N)c(N)o2)cc1 | > 100 µM | > 100 µM | > 100 µM | > 100 µM | > 100 µM | > 100 µM | > 100 µM | > 100 µM | > 100 µM | > 100 µM | – | –
3 | CC(=O)N(CN1C(=O)CCC1C(=O)O)c1ccccc1 (stereo unspecified) | > 100 µM | > 100 µM | > 100 µM | > 100 µM | > 100 µM | > 100 µM | > 100 µM | > 100 µM | > 100 µM | > 100 µM | – | –
4 | O=C(/C=C/c1ccc(-c2ccccc2[N+](=O)[O-])o1)NCc1ccc(C(=O)NCCc2ccccc2)cc1 | > 100 µM | > 100 µM | > 100 µM | > 100 µM | > 100 µM | > 100 µM | > 100 µM | > 100 µM | > 100 µM | > 100 µM | – | –
5 | Cc1ccc(S(=O)(=O)n2cncc2CO)cc1 | > 100 µM | > 100 µM | > 100 µM | > 100 µM | > 100 µM | > 100 µM | > 100 µM | > 100 µM | > 100 µM | > 100 µM | – | –
6 | CCOC(=O)c1ccc(C(=O)C(C(C)=O)C(=O)OC(C)(C)C)n1C (stereo unspecified) | > 100 µM | > 100 µM | > 100 µM | > 100 µM | > 100 µM | > 100 µM | > 100 µM | > 100 µM | > 100 µM | > 100 µM | – | –
7 | Cc1ccc(C(=O)N(C(C)C)C(C)C)cc1N=NN(C)C | > 100 µM | > 100 µM | > 100 µM | > 100 µM | > 100 µM | > 100 µM | > 100 µM | > 100 µM | > 100 µM | > 31.6 µM | – | –
8 | O=C(O)C(CCc1ccccn1)c1ccccc1 (stereo unspecified) | > 100 µM | > 100 µM | > 100 µM | > 100 µM | > 100 µM | > 100 µM | > 100 µM | > 100 µM | > 100 µM | > 100 µM | – | –
9 | CC(NC(=O)/C(=C/c1ccccc1O)NC(=O)c1ccccc1)C(=O)O (stereo unspecified) | 21.6 µM | > 100 µM | > 100 µM | 50.2 µM | 29.1 µM | 55.2 µM | 64.9 µM | > 100 µM | 50.2 µM | > 100 µM | – | –
10 | CC1=C(C(=O)OCCc2ccc([N+](=O)[O-])cc2)C(c2ccccc2[N+](=O)[O-])C(C(=O)OC(C)C)=C(C)N1 (stereo unspecified) | > 100 µM | > 100 µM | > 100 µM | 71.2 µM | > 100 µM | > 100 µM | > 100 µM | > 100 µM | > 100 µM | > 100 µM | – | –
11 | c1ccc(CCN2CCCCCC2)nc1 | > 100 µM | > 100 µM | > 100 µM | > 100 µM | > 100 µM | > 100 µM | > 100 µM | > 100 µM | > 100 µM | > 100 µM | – | –
12 | C=CCC(CNC(=O)OCc1ccccc1)O[Si](C)(C)C(C)(C)C (stereo unspecified) | 57.7 µM | 64.9 µM | > 100 µM | > 100 µM | > 100 µM | > 100 µM | > 100 µM | 79.5 µM | > 100 µM | 47.1 µM | – | –
13 | O=[N+]([O-])c1cccc([N+](=O)[O-])c1S(=O)(=O)c1ccccc1 | 43.1 µM | 3.68 µM | 41.8 µM | 13.6 µM | 6.21 µM | 35.3 µM | 46.7 µM | 23 µM | 31.2 µM | 3.7 µM | – | –
14 | C/C(=N\NC(N)=O)C(CN1CCCCC1)C(c1ccccc1)c1c(O)c2ccccc2oc1=O (stereo unspecified) | > 100 µM | > 100 µM | > 100 µM | > 100 µM | > 100 µM | > 100 µM | > 100 µM | > 100 µM | > 100 µM | > 100 µM | > 100 µM | 86.7 µM
15 | C/C(=C/CO[Si](C)(C)C(C)(C)C)C(=O)N(C)c1ccccc1I | 30.6 µM | 77.9 µM | 32.4 µM | 35.8 µM | 32.2 µM | 30.6 µM | 30 µM | 28.6 µM | 35.5 µM | 31.8 µM | – | –
16 | Cn1c(=O)c2c(-c3ccccc3)onc2n(C)c1=O | > 100 µM | 57.6 µM | > 100 µM | 45.2 µM | > 100 µM | > 100 µM | > 100 µM | > 100 µM | > 100 µM | 70.1 µM | – | –

Row | Compound | TGI (MCF7 breast) | TGI (RPMI-8226 leukemia) | TGI (A549 NSCLC) | TGI (BT-549 breast) | TGI (OVCAR-8 ovarian) | TGI (SNB-19 CNS) | TGI (NCI-H460 lung) | TGI (U251 CNS) | TGI (SK-OV-3 ovarian) | TGI (LOX IMVI melanoma) | GI50 (MCF7 breast) | GI50 (BT-549 breast)
17 | Cc1cccc(C(C)(C)C)c1NC(=O)/C(Cc1nc2ccc([N+](=O)[O-])cc2[nH]c1=O)=N/NC(=O)C[N+](C)(C)C | > 100 µM | > 100 µM | > 100 µM | > 100 µM | > 100 µM | > 100 µM | > 100 µM | > 100 µM | > 100 µM | > 100 µM | – | –
18 | N#CC1=C(N)C(C#N)(C#N)C(c2ccc(F)cc2)C=C1C1CC1 (stereo unspecified) | 17.1 µM | 40.4 µM | 41.7 µM | 12.5 µM | 21.5 µM | 27.9 µM | 17.6 µM | 18.2 µM | 30 µM | 14.5 µM | – | –
19 | CCOC(=O)c1nc2c3c(ncn2n1)Oc1c(c(-c2ccccc2)nn1-c1ccccc1)C3c1ccc(Cl)cc1 (stereo unspecified) | > 100 µM | > 100 µM | > 100 µM | > 100 µM | > 100 µM | > 100 µM | > 100 µM | > 100 µM | > 100 µM | > 100 µM | – | –
20 | CCOC(=O)c1ccc2nc(NC(=O)COC(=O)CSc3nc(C)cc(C)n3)sc2c1 | > 100 µM | > 100 µM | > 100 µM | > 100 µM | > 100 µM | > 100 µM | > 100 µM | > 100 µM | > 100 µM | > 100 µM | – | –
21 | COP(=O)(OC)C(N)CCSC (stereo unspecified) | > 100 µM | > 100 µM | > 100 µM | > 100 µM | > 100 µM | > 100 µM | > 100 µM | > 100 µM | > 100 µM | > 100 µM | – | –
22 | CCCn1c(C23CC4CC(CC(C4)C2)C3)nc2ccc(Cl)cc2c1=O | > 100 µM | > 100 µM | > 100 µM | > 100 µM | > 100 µM | > 100 µM | > 100 µM | > 100 µM | > 100 µM | > 100 µM | – | –
23 | Cc1nnc2cc(C(=O)O)c3ccccc3n2c1=O | > 10 µM | > 10 µM | > 10 µM | > 10 µM | > 10 µM | > 10 µM | > 10 µM | > 10 µM | > 10 µM | > 10 µM | – | –
24 | CC(=O)O[C@H]1C#C/C=C\C#CC[C@@H]2C(=O)N(C(=O)OC(C)(C)C)[C@@H]12 | > 100 µM | > 75.8 µM | > 100 µM | > 81.4 µM | > 82.3 µM | 97 µM | 38.7 µM | > 78.9 µM | > 100 µM | 45.3 µM | – | –
25 | CNC(=O)CCC(NC(C)=O)C(=O)NC(Cc1ccc(NC(=O)CCCCC(C)=O)cc1)C(=O)NC(CCC(=O)NC)C(=O)NC (stereo unspecified) | > 100 µM | > 100 µM | > 100 µM | > 100 µM | > 100 µM | > 100 µM | > 100 µM | > 100 µM | > 100 µM | > 100 µM | – | –
26 | S=C(N/N=C\C=N/NC(=S)N1CCCCCC1)N1CCCCCC1 | > 100 µM | > 100 µM | > 100 µM | > 100 µM | > 100 µM | > 100 µM | > 100 µM | > 100 µM | > 100 µM | > 100 µM | – | –
27 | C/C(O)=C(\C=N\C(N)=S)C(=O)Nc1ccccc1C | > 100 µM | > 100 µM | > 100 µM | > 100 µM | > 100 µM | > 100 µM | > 100 µM | > 100 µM | > 100 µM | > 100 µM | – | –
28 | COC(=O)[C@H](C)N1C(=O)N[C@@H](C(C)C)C1=O | > 100 µM | > 100 µM | > 100 µM | > 100 µM | > 100 µM | > 100 µM | > 100 µM | > 100 µM | > 100 µM | > 100 µM | – | –
29 | O=C(N/N=C\c1cccc2ccccc12)Nc1ccc([N+](=O)[O-])cc1 | > 100 µM | > 100 µM | > 100 µM | > 66.4 µM | > 53.5 µM | > 100 µM | > 76.6 µM | > 100 µM | 97.2 µM | > 100 µM | – | –
30 | CC(C)CCC[C@@H](C)[C@H]1CC[C@H]2[C@@H]3CC=C4C[C@@H](OC(=O)c5cccc6c(=O)c7ccccc7[nH]c56)CC[C@]4(C)[C@H]3CC[C@]12C | > 75 µM | > 75 µM | > 75 µM | > 75 µM | > 75 µM | > 75 µM | – | > 75 µM | > 75 µM | > 75 µM | – | –
31 | Cc1ccc2nc3c(C)c(Cl)c(=O)cc-3sc2c1 | 61.8 µM | > 52.3 µM | 98.2 µM | > 100 µM | > 100 µM | > 100 µM | 97.4 µM | > 91.5 µM | > 100 µM | 33.6 µM | – | –
